Test: Rate of dissolution in H2O at 25° C.
Assay type: physicochemical

Row | SMILES | Rate of dissolution in H2O at 25° C. (grade in words) | Rate of dissolution in H2O at 25° C. (amount dissolved) (in 5 minutes) | Rate of dissolution in H2O at 25° C. (amount dissolved) (in 60 minutes) | Rate of dissolution compared to the polymorphic forms (Forms 1, 2, or 3)
1 | C=C1C[C@@]23CC[C@H]4[C@@](C)(CCC[C@@]4(C)C(=O)O[C@@H]4O[C@H](CO)[C@@H](O)[C@H](O)[C@H]4O)[C@@H]2CC[C@]1(O[C@@H]1O[C@H](CO)[C@@H](O)[C@H](O[C@@H]2O[C@H](CO)[C@@H](O)[C@H](O)[C@H]2O)[C@H]1O[C@@H]1O[C@H](CO)[C@@H](O)[C@H](O)[C@H]1O)C3 [Form 3, rebaudioside A] | High | (>30% in 5 |  | 
2 | C=C1C[C@@]23CC[C@H]4[C@@](C)(CCC[C@@]4(C)C(=O)O[C@@H]4O[C@H](CO)[C@@H](O)[C@H](O)[C@H]4O)[C@@H]2CC[C@]1(O[C@@H]1O[C@H](CO)[C@@H](O)[C@H](O[C@@H]2O[C@H](CO)[C@@H](O)[C@H](O)[C@H]2O)[C@H]1O[C@@H]1O[C@H](CO)[C@@H](O)[C@H](O)[C@H]1O)C3 [Form 2, rebaudioside A] | Intermediate | (<30% in 5 |  | 
3 | C=C1C[C@@]23CC[C@H]4[C@@](C)(CCC[C@@]4(C)C(=O)O[C@@H]4O[C@H](CO)[C@@H](O)[C@H](O)[C@H]4O)[C@@H]2CC[C@]1(O[C@@H]1O[C@H](CO)[C@@H](O)[C@H](O[C@@H]2O[C@H](CO)[C@@H](O)[C@H](O)[C@H]2O)[C@H]1O[C@@H]1O[C@H](CO)[C@@H](O)[C@H](O)[C@H]1O)C3 [Form 1, rebaudioside A] | Very low |  | (<0.2% in 60 | 
4 | C=C1C[C@@]23CC[C@H]4[C@@](C)(CCC[C@@]4(C)C(=O)O[C@@H]4O[C@H](CO)[C@@H](O)[C@H](O)[C@H]4O)[C@@H]2CC[C@]1(O[C@@H]1O[C@H](CO)[C@@H](O)[C@H](O[C@@H]2O[C@H](CO)[C@@H](O)[C@H](O)[C@H]2O)[C@H]1O[C@@H]1O[C@H](CO)[C@@H](O)[C@H](O)[C@H]1O)C3 [Form 4, rebaudioside A] | High | (>35% in 5 |  | improved rate of dissolution

Reference: patent publication US9012626B2, “Rebaudioside a composition and method for purifying rebaudioside a” (The Coca-Cola Company, priority 2006, dated 2015)
